Test [1] has as its target T1, D(4) dopamine receptor (Homo sapiens, UniProt P21917).
T1 sequence (P21917 whole entry): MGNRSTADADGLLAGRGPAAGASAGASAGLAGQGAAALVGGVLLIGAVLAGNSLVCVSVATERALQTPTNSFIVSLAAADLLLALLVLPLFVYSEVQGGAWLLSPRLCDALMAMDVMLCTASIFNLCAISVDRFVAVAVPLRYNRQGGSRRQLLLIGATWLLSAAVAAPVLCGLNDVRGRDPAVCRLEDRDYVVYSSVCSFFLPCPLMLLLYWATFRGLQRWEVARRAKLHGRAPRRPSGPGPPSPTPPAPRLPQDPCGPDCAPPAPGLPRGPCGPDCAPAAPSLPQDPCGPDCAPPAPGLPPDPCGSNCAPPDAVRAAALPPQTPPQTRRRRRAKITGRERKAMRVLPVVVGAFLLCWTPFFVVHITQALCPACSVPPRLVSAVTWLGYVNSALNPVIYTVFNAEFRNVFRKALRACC
Description: Agonist activity at D4 receptor (unknown origin)

Test [2] has as its target T2, D(3) dopamine receptor (Homo sapiens, UniProt P35462).
Description: Agonist activity at D3 receptor (unknown origin)
Test [3] has as its target T3, Amine oxidase [flavin-containing] A (Homo sapiens, UniProt P21397).
T3 sequence (P21397 whole entry): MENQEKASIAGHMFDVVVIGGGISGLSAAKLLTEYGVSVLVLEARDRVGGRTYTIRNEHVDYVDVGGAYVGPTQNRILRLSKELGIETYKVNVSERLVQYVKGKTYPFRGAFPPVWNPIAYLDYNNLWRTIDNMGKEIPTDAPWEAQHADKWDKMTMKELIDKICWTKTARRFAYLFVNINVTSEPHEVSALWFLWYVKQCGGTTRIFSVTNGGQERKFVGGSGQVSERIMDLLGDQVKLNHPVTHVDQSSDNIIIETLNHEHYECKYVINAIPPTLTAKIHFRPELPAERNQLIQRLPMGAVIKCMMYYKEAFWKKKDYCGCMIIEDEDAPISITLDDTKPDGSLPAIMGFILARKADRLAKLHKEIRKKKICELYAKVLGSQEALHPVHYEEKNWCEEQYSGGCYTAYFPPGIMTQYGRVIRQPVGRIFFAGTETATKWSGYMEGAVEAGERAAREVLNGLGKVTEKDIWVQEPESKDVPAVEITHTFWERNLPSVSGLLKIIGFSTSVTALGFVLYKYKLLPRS
Description: Inhibition of MAO-A (unknown origin) measured by MAO-GloTM method

Test [4] deals with T4, Amine oxidase [flavin-containing] B (Homo sapiens, UniProt P27338).
T4 sequence (P27338 whole entry): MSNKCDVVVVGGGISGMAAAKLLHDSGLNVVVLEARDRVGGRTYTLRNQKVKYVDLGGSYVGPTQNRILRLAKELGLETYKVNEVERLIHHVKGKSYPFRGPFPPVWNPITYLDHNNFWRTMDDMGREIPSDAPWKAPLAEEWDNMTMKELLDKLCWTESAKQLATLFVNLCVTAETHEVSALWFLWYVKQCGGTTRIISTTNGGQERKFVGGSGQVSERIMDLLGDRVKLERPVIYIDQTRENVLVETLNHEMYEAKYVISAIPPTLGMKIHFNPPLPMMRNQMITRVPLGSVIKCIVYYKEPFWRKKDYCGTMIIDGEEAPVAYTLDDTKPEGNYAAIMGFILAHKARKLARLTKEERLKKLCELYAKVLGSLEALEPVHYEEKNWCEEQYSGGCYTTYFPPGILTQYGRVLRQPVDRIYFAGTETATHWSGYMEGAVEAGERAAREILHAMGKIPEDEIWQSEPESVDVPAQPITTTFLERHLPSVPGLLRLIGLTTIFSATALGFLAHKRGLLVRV
Description: Inhibition of MAO-B (unknown origin) measured by MAO-GloTM method

Test [5] deals with T2, D(3) dopamine receptor. The source holds these as a separate data set.
Description: Inhibition of D3 receptor (unknown origin)
For another test, the target named is Vasopressin V1a receptor (Homo sapiens, UniProt P37288).
Chain of Vasopressin V1a receptor (P37288 whole entry): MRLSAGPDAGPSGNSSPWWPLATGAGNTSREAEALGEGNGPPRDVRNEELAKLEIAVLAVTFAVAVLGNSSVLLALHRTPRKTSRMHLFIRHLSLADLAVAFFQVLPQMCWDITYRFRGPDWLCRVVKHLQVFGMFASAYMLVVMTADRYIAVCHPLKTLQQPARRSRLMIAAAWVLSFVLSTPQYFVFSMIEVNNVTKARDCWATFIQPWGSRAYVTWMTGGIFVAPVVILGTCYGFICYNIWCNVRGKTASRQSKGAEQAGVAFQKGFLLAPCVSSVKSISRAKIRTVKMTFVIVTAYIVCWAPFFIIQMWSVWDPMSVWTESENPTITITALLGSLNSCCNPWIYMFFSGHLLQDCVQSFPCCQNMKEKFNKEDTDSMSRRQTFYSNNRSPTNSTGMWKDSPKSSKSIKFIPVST
The target of test [6] is T1, D(4) dopamine receptor. This is another data set of the same source.
Description: Inhibition of D4 receptor (unknown origin)

The structures appear in SMILES notation.

As usually defined, the EC50 is the concentration needed to bring the measured effect to its halfway point. For orientation: IC50 means the concentration that gives 50% inhibition. A higher IC50 goes with weaker potency in that assay.

T2 sequence (P35462 whole entry): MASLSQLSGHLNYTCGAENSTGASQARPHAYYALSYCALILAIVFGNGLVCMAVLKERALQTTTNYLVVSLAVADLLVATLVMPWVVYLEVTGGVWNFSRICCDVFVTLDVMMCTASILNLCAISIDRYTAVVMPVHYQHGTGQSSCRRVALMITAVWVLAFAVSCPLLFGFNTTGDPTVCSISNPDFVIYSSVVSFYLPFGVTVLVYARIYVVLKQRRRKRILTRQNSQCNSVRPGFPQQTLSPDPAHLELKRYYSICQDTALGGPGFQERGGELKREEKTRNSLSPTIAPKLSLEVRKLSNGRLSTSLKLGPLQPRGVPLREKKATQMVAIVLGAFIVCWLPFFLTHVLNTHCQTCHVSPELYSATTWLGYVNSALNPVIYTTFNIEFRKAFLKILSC
Description for Vasopressin V1a receptor: Inhibition of Vasopressin V1A receptor (unknown origin)

For `Oc1c(O)c(Br)c(COCc2c(Br)c(O)c(O)c(Br)c2Br)c(Br)c1Br`, the EC50 on D(4) dopamine receptor [1] and at D(3) dopamine receptor [2] was 59 µM each time. The values for the IC50 in test [3] and in test [4] were 89.3 µM and 103 µM, respectively.

As for `O=C(/C=C/c1ccc(O)cc1)c1ccc(O)cc1O` [ISOLIQUIRITIGENIN], the IC50 on D(3) dopamine receptor [5] amounted to 62.3 µM; against Vasopressin V1a receptor it was 78.6 µM.

Consider `O=c1cc(-c2ccc(O)c(O)c2)oc2cc(O)cc(O)c12` [LUTEOLIN], for which the IC50 on Vasopressin V1a receptor is 19.5 µM; in test [3] it was 8.57 µM; in test [4] it was greater than 100 µM; on D(4) dopamine receptor [6], 39.6 µM.
